Read-outs that look alike come from different tables or passages of the source.
Experiments:
human Oct4 promoter = test: Oct4-luc luciferase reporter assay (stably transfected CV1 cells); type: cell-based; settings: for induction of Oct4-luc, comparison with known reprogramming enhancers (in words): OAC1 1 μM, BIO 2 μM, BIX 2 μM, AzaC 2 μM, Vc 25 μg/ml, Am580 10 nM, tranylcypromine 5 μM, VPA 0.5 mM, two days; for fold induction at 1 µM / Oct4-luc Activity / Oct4-luc fold Induction: compound at 1 μM, Oct4-luc cells, triplicates
Text: A high-throughput screening scheme was designed to identify Oct4 promoter-activating compounds using a luciferase reporter under the control of the human Oct4 promoter (Oct4-luc). […] A stable cell line (Oct4-luc) that expresses luciferase reporter driven by the exogenous Oct4 promoter was established using hygromycin-resistance as a selection marker. These Oct4-luc cells were used for high-throughput screening of a chemical library of 80,000 compounds. The luciferase reporter activity was measured 24 hr after compound treatment. Solvent treatment was included as a negative control.
(§1) Then the promoter sequences were cloned into pGL4.4-luc-Hyg vector (Promega) to get Oct4-luc or Nanog-luc construct and the fidelity of the Oct4 and Nanog promoter DNA sequences was confirmed by bi-directional sequencing. CV 1 cells were transfected with the Oct4-luc or Nanog-luc constructs and the stably-transfected cells were selected by hygromycine resistance.
Compound Screening: The Oct4-luc cells were seeded at 1.75×10^4 cells per well density into 96-well plates. Compounds were added to cells one day after cell seeding at the concentration of 10 μM for 24 hr in the High-Throughput Screening core facility at City of Hope. Compounds that induced luciferase activity 3-fold or more were selected for further validation in both Oct4-luc and Nanog-luc cells.
(§2) Luciferase Reporter Assays: The Oct4-luc or Nanog-luc cells were treated with compound OAC 1 or its structural analogs at 1 μM concentration or at indicated concentrations in triplicates. Other compounds used include 2 μM BIO, 2 μM BIX, 2 μM
(§3) AzaC, 25 μg/ml Vc, 10 nM Am580, 5 μM tranylcypromine, and 0.5 mM VPA. Luciferase reporter assays were performed as described (51) 24 hr after compound treatment or at indicated time points. For Topflash reporter assays, 0.2 μg β-catenin-responsive Topflash reporter gene plasmid was introduced into CV1 cells using trasfection (Bio-Rad). Compounds were added 6 hr after transfection. Luciferase activity was measured 48 hr after compound treatment using the Glo Luciferase Assay System (Promega).

[1] = test system: β-catenin-responsive reporter gene Topflash; test: Topflash luciferase reporter assay in CV1 cells (Wnt signaling); type: cell-based; settings: 1 μM OAC1 or 2 μM BIO, 48 hr
Description: Whether OAC1 regulates major signaling pathways that are critical for embryonic stem cell pluripotency was investigated. […] CV1 cells were transfected with the β-catenin-responsive reporter gene Topflash, and the transfected cells were treated with vehicle control or OAC1 (FIG. 6C). The glycogen synthase kinase 3β (GSK3β) inhibitor BIO was included as a positive control (42).
as §3

human Nanog promoter = test: Nanog-luc luciferase reporter assay (stably transfected CV1 cells); type: cell-based; settings: for induction of Nanog-luc, comparison with known reprogramming enhancers (in words): OAC1 1 μM, BIO 2 μM, BIX 2 μM, AzaC 2 μM, Vc 25 μg/ml, Am580 10 nM, tranylcypromine 5 μM, VPA 0.5 mM, two days
Description: Oct4, Sox2, and Nanog form a positive regulatory loop to regulate the expression of each other, and Nanog is considered a downstream target gene of Oct4 and Sox2 (37). Therefore, activation of Nanog promoter was used as a validation assay for the identified compounds. Specifically, the Oct4 promoter-activating compounds were tested to ascertain whether they activate a human
Nanog promoter-driven luciferase reporter gene using in triplicate luciferase reporter assays.
as §1, §2, §3

MEFs = settings: OSKM, cited from earlier work
[2] = test system: mouse embryonic fibroblasts (MEFs); test: iPSC derivation from 4F (OSKM)-transduced MEFs in mouse ESC media; type: cell-based; settings: 4F+OAC
Description: The generation of iPSCs is a gradual process with relatively low efficiency. Since Oct4 is central to the reprogramming process (35, 36, 38), it was hypothesized that compounds that activate Oct4 transcription may facilitate iPSC generation by enhancing reprogramming efficiency. Reprogramming of mouse embryonic fibroblasts (MEFs) was performed with the 4F reprogramming quartet Oct4, Sox2, Klf4, and c-Myc, along with solvent control, OAC1 or its structural analogs OAC2 and OAC3. The same number of starting MEFs and the same viral stocks were used for each treatment. Two days after viral transduction, the 4F-transduced cells were seeded onto feeder cells in mouse ESC culture media, and this day was designated as day 0 (FIG. 2D). Compound treatment started on day 0 and lasted for 7 days. By counting the number of clones with ESC-like morphology at day 18, both OAC1 and its analogs OAC2 and OAC3 enhanced the 4F-induced reprogramming efficiency considerably. The number of colonies with ESC-like morphology (FIG. 2E) increased 2-fold or more in 4F plus OAC (4F+OAC) treatment, compared to the 4F treatment alone (FIG. 2F, Table 3).
iPSC Derivation in Mouse ESC Media: OG2/R26MEFs were seeded onto […] at the density of 4×10^4 cells per well in DMEM medium with 10% FBS, 0.1 mM non-essential amino acids (NEAA), and 0.1 mM L-glutamine, 24 hr before transduction. Freshly concentrated viruses of the four factors, Oct4, Sox2, c-Myc, and Klf4, were added to the cells. Two days after viral infection, the viral-transduced OG2/R26MEFs were split into new 6-well plates with irradiated MEF feeder cells and cultured in mouse ESC culture medium containing 15% ESC qualified FBS, 2 mM L-glutamine, 0.1 mM 2-mercaptoethanol, 0.1 mM NEAA, 1 mM sodium pyruvate and 1000 U/ml of leukemia inhibitory factor (LIF), and this day was defined as day 0. 1 μM of each compound (OAC1, OAC2, and OAC3) was added to the 4F-transduced cells at day 0 and treatment was continued for 1 week. When iPSC colonies emerged, these colonies were picked for expansion on irradiated MEF feeders in mouse ESC medium.

[3] = test system: human fibroblast cells (IMR90); test: human iPSC derivation from 4F (OSKM)-transduced IMR90 fibroblasts; type: cell-based
Description: It has been shown that compound OAC1 (Oct4-activating compound I) and two of its structural analogs OAC2 and OAC3 can enhance reprogramming efficiency, when added to the reprogramming mixture along with the four transcription factors, Oct4, Sox2, Klf4, and c-Myc (OSKM), in mouse system. The OAC compounds were tested to determine if they can enhance reprogramming efficiency in human system. The reprogramming process was performed as described in the diagram (FIG. 14a). Briefly, human fibroblast cells (IMR90) were induced to reprogram into induced pluripotent stem cells (iPSCs) using the four reprogramming factors (4F), OSKM. The day when the cells were transduced with the four reprogramming factors was referred to as day 0. Cells were cultured in IMR90 media for six days. On day 6, the transduced cells were split and seeded onto feeders. On day 7, IMR90 culture media was changed to hESC culture media and started compound treatment. Compound treatment was lasted for one week. Cells were monitored for the appearance of human embryonic stem cell (ESC)-like colonies. On day 9, several small human ESC-like colonies appeared in both 4F+OAC1 and 4F+OAC2-treated cells, however, human ESC-like colonies were not observed in 4F+vehicle (4F)-treated cells until day 11. To determine the effect of OAC on the efficiency of human iPSC derivation, the number of human ESC-like colonies were counted under all three conditions at day 18. Both OAC 1 and its structural analog OAC2 increased the number of human ESC-like colonies more than two-fold (FIG. 14b, c). The human ESC-like colonies were picked from either 4F or 4F+OAC-treated cells and expanded under human ESC culture conditions. These cells were able to expand and stably produce human iPSC clones with characteristic human ESC-like morphology (FIG. 14d).

[4] = day 8 post-infection of reprogramming factors; cited from earlier work
[5] = seeding 5 × 10^4, day 25, reference (4) Lyssiotis 2009
[6] = compound at 1 μM, Nanog-luc cells, triplicates
[7] = seeding 7,500, day 30, reference (5) Ichida 2009
[8] = seeding 2.7 × 10^5, day 8, reference (2) Huangfu 2008

SMILES	Oct4-luc fold Induction (human Oct4 promoter)	Nanog-luc fold Induction (human Nanog promoter; [6])	Oct4-luc Activity (human Oct4 promoter)	further results
O=C1Nc2cc(Br)ccc2/C1=C1/Nc2ccccc2/C1=N\O [BIO, reference compound]				induction of Oct4-luc, comparison with known reprogramming enhancers (in words) (human Oct4 promoter): lower level induction; effect on Topflash reporter activity [1]: activated the Topflash reporter potently; induction of Nanog-luc, comparison with known reprogramming enhancers (in words) (human Nanog promoter): lower level induction
O=C1Cc2c([nH]c3ccc(Br)cc23)-c2ccccc2N1 [Kenpaullone, kenpaullone]				Colony numbers (MEFs; [5]): 100; Reprogramming efficiency (MEFs; [5]): 0.2%
O=C(Nc1ccc2[nH]ccc2c1)c1ccccc1 [OAC2, N-(1H-indol-5-yl)benzamide]				advance of the appearance of putative iPSC colonies compared to 4F only reprogramming [2]: about three to four; fold induction at 1 µM (human Oct4 promoter; Homo sapiens, CV-1, 24 h, read-out: Oct4-luc Activity): ≥ 1.8; fold induction at 1 µM (human Oct4 promoter; read-out: Oct4-luc fold Induction): 3.6; fold induction at 1 µM (human Nanog promoter; Chlorocebus aethiops, CV-1, compound at 1 μM, Nanog-luc cells, triplicates): 3.9; day at which human ESC-like colonies appeared ([3]; IMR90, 4F+compound, day 0 = transduction, 4F+vehicle day 11): 9 days; increase in the number of human ESC-like colonies ([3]; IMR90, day 18, versus 4F): more than two
Cc1cccc(-c2[nH]ncc2-c2ccc3ncccc3n2)n1 [RepSox2]				Colony numbers (MEFs; [7]): 7.5; Reprogramming efficiency (MEFs; [7]): 0.1%
CC(/C=C/C(=O)NO)=C\[C@@H](C)C(=O)c1ccc(N(C)C)cc1 [TSA]				increase in reprogramming efficiency in iSF1 media [4]: 2 fold
CCCC(CCC)C(=O)O [VPA, valproic acid]				induction of Oct4-luc, comparison with known reprogramming enhancers (in words) (human Oct4 promoter): no significant effect; Colony numbers (MEFs; [8]): 241; Reprogramming efficiency (MEFs; [8]): 0.089%; increase in reprogramming efficiency in iSF1 media [4]: 2 fold; induction of Nanog-luc, comparison with known reprogramming enhancers (in words) (human Nanog promoter): no significant effect
O=C1O[C@H]([C@@H](O)CO)C(O)=C1O [Vc, Vitamin C, reference compound]				induction of Oct4-luc, comparison with known reprogramming enhancers (in words) (human Oct4 promoter): no significant effect; induction of Nanog-luc, comparison with known reprogramming enhancers (in words) (human Nanog promoter): no significant effect

The next lines start with results.

Oct4-luc fold Induction (human Oct4 promoter)	Nanog-luc fold Induction (human Nanog promoter; [6])	SMILES	Oct4-luc Activity (human Oct4 promoter)	further results
4.4 fold	4.4 fold	CCOc1ccc(C(=O)Nc2ccc3[nH]ncc3c2)cc1 [OAC9]	++ (Compounds that induce Oct4-luc 1.8-fold or more were classified as “++”)	
4.5 fold	4.4 fold	CCc1ccc(C(=O)Nc2ccc3[nH]ncc3c2)cc1 [OAC10]	++ (Compounds that induce Oct4-luc 1.8-fold or more were classified as “++”)	
3.8 fold	3.9 fold	CC(C)c1ccc(C(=O)Nc2ccc3[nH]ncc3c2)cc1 [OAC11]	++ (Compounds that induce Oct4-luc 1.8-fold or more were classified as “++”)	
2.8 fold	2.9 fold	Cc1ccc(C(=O)Nc2ccc3[nH]ncc3c2)cc1C [OAC13]	++ (Compounds that induce Oct4-luc 1.8-fold or more were classified as “++”)	
2.7 fold	2.6 fold	CCOc1cccc(C(=O)Nc2ccc3[nH]ncc3c2)c1 [OAC14]	++ (Compounds that induce Oct4-luc 1.8-fold or more were classified as “++”)	
1.9 fold	1.9 fold	COc1cccc(C(=O)Nc2ccc3[nH]ncc3c2)c1 [OAC15]	++ (Compounds that induce Oct4-luc 1.8-fold or more were classified as “++”)	
3 fold	3.43 fold	COc1ccc(C(=O)Nc2ccc3[nH]c(C)cc3c2)cc1 [OAC16]	++ (Compounds that induce Oct4-luc 1.8-fold or more were classified as “++”)	
4.2 fold	4.56 fold	CN(C)c1ccc(C(=O)Nc2ccc3[nH]ncc3c2)cc1 [OAC17]	++ (Compounds that induce Oct4-luc 1.8-fold or more were classified as “++”)	
4.49 fold	4.5 fold	O=C(Nc1ccc2[nH]ncc2c1)c1ccc(Br)cc1 [OAC18]	++ (Compounds that induce Oct4-luc 1.8-fold or more were classified as “++”)	

— patent US8962322B2, “Enhancers of induced pluripotent stem cell reprogramming” (City of Hope, priority 2012, dated 2015)
